Reference: publication PMC11124362, “Metabolism, Disposition, Excretion, and Potential Transporter Inhibition of 7–16, an Improving 5-HT2A Receptor Antagonist and Inverse Agonist for Parkinson’s Disease” (Molecules, 2024)

Legend:
OATP1B3 = target: T1, OATP1B3 (Homo sapiens, UniProt Q9NPD5)
T1 sequence (Q9NPD5 1-702): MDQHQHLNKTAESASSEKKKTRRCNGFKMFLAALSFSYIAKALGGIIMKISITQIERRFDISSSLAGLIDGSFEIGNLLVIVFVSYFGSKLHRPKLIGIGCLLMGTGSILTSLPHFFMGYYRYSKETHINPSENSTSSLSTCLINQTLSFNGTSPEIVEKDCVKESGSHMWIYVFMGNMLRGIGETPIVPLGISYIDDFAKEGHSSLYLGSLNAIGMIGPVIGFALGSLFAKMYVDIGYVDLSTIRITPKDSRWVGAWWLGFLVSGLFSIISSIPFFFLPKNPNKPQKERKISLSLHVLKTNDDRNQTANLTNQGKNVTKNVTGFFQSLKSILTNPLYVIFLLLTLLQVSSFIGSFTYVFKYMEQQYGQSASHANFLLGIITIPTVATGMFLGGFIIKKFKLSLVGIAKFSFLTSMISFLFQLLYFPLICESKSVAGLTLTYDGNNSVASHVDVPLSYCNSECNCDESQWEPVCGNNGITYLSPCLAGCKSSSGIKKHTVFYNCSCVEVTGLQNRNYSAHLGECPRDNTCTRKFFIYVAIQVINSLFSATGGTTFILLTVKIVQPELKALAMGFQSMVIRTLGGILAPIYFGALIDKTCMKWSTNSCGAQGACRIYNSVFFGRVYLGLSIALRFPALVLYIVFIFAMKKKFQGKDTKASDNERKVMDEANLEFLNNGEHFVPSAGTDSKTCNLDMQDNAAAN

CYP1A2 = system: CYP1A2; parameters: method as in PMID 35279606; conditions: previous study; read-out: CYP1A2 inhibition IC50; cited from earlier work
[1] = Metabolite identification in monkey liver microsomes; format: in vitro ADME; conditions: 7–16 10 µM, liver microsomes 1 mg/mL, NADPH, 37 °C, 60 min
Protocol: In accordance with our previous methods, 7–16 (10 µM) was incubated with mouse, rat, dog, monkey, and human liver microsome proteins (1 mg/mL) in 100 mM sodium phosphate buffer (pH 7.4) containing 10 mM magnesium chloride and 2 mM NADPH at 37 °C for 60 min. All samples were prepared in duplicates. The reactions were terminated by adding three times the volume of ice-cold acetonitrile (600 µL) and stored at −20 °C until analysis. Control samples without NADPH and 0-time point samples were included. As a positive control, testosterone (10 µM), which was metabolized to produce the hydroxylation metabolite, was used as a substrate to confirm the activity of the incubation system.
After pre-treatments, the samples were analyzed by an Acquity UPLC system coupled with a diode array detector (Waters Corporation, Milford, MA, USA) and Q Exactive HRMS (Thermo Electron Corporation, Waltham, MA, USA) (UPLC–UV-Q Exactive HRMS). Samples were separated on an Agilent XDB C18 column (150 × 2.1 mm i.d. 3.5 μm, Agilent Corporation, Santa Clara, CA, USA) at 40 °C by gradient elution with water and acetonitrile containing 0.1% formic acid. The flow rate was 0.40 mL/min. The ultraviolet (UV) detection wavelength was 286 nm. Q Exactive HRMS were operated at positive ion mode (3.5 kV) using a heating electrospray ionization source. Mass calibration was required to be performed before conducting experiments so as to achieve the best mass accuracy and mass calibration should be performed every five days. The metabolites were detected by full MS/dd-MS^2 analysis from m/z 100 to m/z 1000. The resolution of the first-class scan and second-class scan was 70,000 and 17,500, respectively. Thermo Compound Discover software was used to identify expected and unknown metabolites, and we finally proposed the 7–16 metabolic pathways based on the deduced metabolites and relevant drug biotransformation knowledge.

OCT2 = target: T2, OCT2 (Homo sapiens, UniProt O15244)
T2 sequence (O15244 1-555): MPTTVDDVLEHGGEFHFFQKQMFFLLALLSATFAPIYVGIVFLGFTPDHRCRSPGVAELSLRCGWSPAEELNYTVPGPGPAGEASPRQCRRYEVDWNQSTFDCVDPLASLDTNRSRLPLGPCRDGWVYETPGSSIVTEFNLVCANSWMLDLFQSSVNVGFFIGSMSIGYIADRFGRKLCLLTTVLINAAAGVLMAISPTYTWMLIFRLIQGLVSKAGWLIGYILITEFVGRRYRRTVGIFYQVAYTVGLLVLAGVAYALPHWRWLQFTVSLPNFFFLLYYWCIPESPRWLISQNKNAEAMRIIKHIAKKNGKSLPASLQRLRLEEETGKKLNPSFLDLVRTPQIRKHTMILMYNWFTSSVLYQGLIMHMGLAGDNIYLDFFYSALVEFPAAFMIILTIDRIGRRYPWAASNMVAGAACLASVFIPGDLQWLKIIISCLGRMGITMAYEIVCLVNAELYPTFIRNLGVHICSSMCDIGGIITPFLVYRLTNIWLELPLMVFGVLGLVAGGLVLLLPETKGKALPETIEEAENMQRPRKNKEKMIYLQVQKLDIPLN

OATP1B1 = target: T3, OATP1B1 (Homo sapiens, UniProt Q9Y6L6)
T3 sequence (Q9Y6L6 1-691): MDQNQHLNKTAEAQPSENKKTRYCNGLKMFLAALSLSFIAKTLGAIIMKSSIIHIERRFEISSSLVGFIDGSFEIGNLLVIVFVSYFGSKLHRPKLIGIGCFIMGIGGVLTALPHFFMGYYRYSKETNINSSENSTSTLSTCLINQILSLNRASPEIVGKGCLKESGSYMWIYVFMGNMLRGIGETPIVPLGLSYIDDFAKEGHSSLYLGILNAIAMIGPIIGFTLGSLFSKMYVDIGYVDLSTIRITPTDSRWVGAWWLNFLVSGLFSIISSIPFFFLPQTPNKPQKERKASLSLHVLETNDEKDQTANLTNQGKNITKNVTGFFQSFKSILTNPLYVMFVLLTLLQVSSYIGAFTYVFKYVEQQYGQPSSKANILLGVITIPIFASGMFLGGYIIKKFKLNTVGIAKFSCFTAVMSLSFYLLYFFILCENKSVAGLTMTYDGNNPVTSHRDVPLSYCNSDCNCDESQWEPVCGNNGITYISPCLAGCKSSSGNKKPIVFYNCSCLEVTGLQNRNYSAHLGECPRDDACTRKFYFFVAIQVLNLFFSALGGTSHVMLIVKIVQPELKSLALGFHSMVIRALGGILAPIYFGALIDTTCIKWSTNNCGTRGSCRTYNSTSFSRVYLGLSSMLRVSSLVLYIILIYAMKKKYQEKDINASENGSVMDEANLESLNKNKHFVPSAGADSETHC

## CN1CCC(N(Cc2ccc(F)cn2)C(=O)NCc2ccc(OCC(F)(F)F)cc2)CC1 [7–16, 3-(4-(2,2,2-trifluoroethoxy)benzyl)-1-((5-fluoropyridin-2-yl)methyl)-1-(1-methylpiperidin-4-yl) urea]
OATP1B3
  IC50: 89.5 µM
CYP1A2
  IC50: 8.5 µM
[1]
  Relative Abundance, UV Area% Monkey: 90.6%
OCT2
  IC50: 72.5 µM
OATP1B1
  IC50: > 100 µM
